Values joined by “and” are separate entries in the source; they are usually repeats but may differ in a detail not shown here. Identical values can stand only once.
How the values were obtained:
[1] = tested on: VEGF; test: Stimulation of VEGF release in NHDF (ELISA); type: cell-based, human; conditions: 72 hours, 1 μg/ml
Method: (§1) Tests were performed with normal human dermal fibroblast cultures at the 8th passage. Cells were grown in DMEM supplemented with glutamine at 2 mM, penicillin at 50 U/mL and streptomycin (50 μg/mL) and 10% of fetal calf serum (FCS) at 37° C. in a 5% CO2 atmosphere.
(§2) Fibroblasts were cultured for 24 hours before the cells were incubated with the test compounds for further 72 hours. After the incubation the culture supernatants were collected in order to measure the released quantities of procollagen I, VEGF, and fibronectin by means of ELISA. Reference test compounds were vitamin C (procollagen I), PMA (VEGF), and TGF-β (fibronectin).

[2] = tested on: hydrogen peroxide (DHR) in NHEK cells; test: Protection against UV-induced H2O2 stress in NHEK (DHR probe, flow cytometry); type: cell-based, human; conditions: 180 mJ/cm^2 UVB (2839 mJ/cm^2 UVA), 100 μM
Method: (§3) Pre-incubated NHEK were incubated with the test compound for 24 h. Then the specific fluorescence probe for the measurement of hydrogen peroxide (DHR) or lipid peroxides (C11-fluor) was added and incubated for 45 min. Irradiation occurred with in H2O2 determination UVB at 180 mJ/cm^2 (+UVA at 2839 mJ/cm^2) or UVB at 240 mJ/cm^2 (+UVA at 3538 mJ/cm^2) in lipid peroxide, respectively, using a SOL500 Sun Simulator lamp. After irradiation the cells were post-incubated for 30 min before flow-cytometry analysis.

[3] = tested on: fibronectin; test: Stimulation of fibronectin synthesis in NHDF (ELISA); type: cell-based, human; conditions: 72 h incubation, 10 ng/ml
Method: as §1, §2

[4] = tested on: procollagen I; test: Stimulation of procollagen I synthesis in NHDF (ELISA); type: cell-based, human; conditions: 72 hours, 20 μg/ml
Method: as §1, §2

[5] = tested on: PGE2; test: Anti-inflammatory potential: secreted PGE2 in stimulated NHEK (ELISA); type: cell-based, human; conditions: PMA - 1 μg/ml, reference at 10^−6M, cytokine type not given; for Cytokine: single values
Method: NHEK were pre-incubated for 24 h with the test compounds. The medium was replaced with the NHEK culture medium containing the inflammatory inducers (PMA or Poly I:C) and incubated for another 24 hours. Positive and negative controls ran in parallel. At the endpoint the culture supernatants were quantified of secreted IL-8, PGE2 and TNF-α, by means of ELISA.

[6] = tested on: normal human epidermal keratinocytes (NHEK); test: Cytotoxicity on NHEK monolayer (MTT reduction assay and morphological observation); type: cell-based; conditions: for Viability (%) Mean / Viability (%): MTT; for Viability (%): single values; for Morph. obs.: microscope
Method: To determine the cytotoxicity of flavonoid-5-O-α-L-rhamnosides tests were performed versus their aglycon derivatives in cell monolayer cultures. For this purpose concentrations ranging from 1 μM to 250 μM were chosen. The viability of normal human epidermal keratinocytes (NHEK) was twice evaluated by a MTT reduction assay and morphological observation with a microscope. NHEK were grown at 37° C. and 5% CO2 aeration in Keratinocyte-SFM medium supplemented with epidermal growth factor (EGF) at 0.25 ng/mL, pituitary extract (PE) at 25 μg/mL and gentamycin (25 μg/mL) for 24 h and were used at the 3rd passage. For cytotoxicity testing, pre-incubated NHEK were given fresh culture medium containing a specific concentration of test compound and incubated for 24 h. After a medium change at same test concentration cells were incubated a further 24 h until viability was determined. Test results are given in Table B2 and illustrated in FIG. 10.

[7] = tested on: matrix metallopeptidase 1 (MMP-1); test: MMP-1 release in UVA-irradiated NHDF (ELISA); type: cell-based, human; conditions: NHDF irradiated 15 J/cm^2 UVA, 10^−7M
Method: as §1
Human fibroblasts were cultured for 24 hours before the cells were pre-incubated with the test or reference compounds (dexamethasone) for another 24 hours. The medium was replaced by the irradiation medium (EBSS, CaCl2) 0.264 g/L, MgClSO4 0.2 g/L) containing the test compounds) and cells were irradiated with UVA (15 J/cm^2). The irradiation medium was replaced by culture medium including again the test compounds incubated for 48 hours. After incubation the quantity of matrix metallopeptidase 1 (MMP-1) in the culture supernatant was measured using an ELISA kit.

[8] = tested on: lipid peroxides (C11-fluor) in NHEK cells; test: Protection against UV-induced lipid peroxide in NHEK (C11-fluor probe, flow cytometry); type: cell-based, human; conditions: 240 mJ/cm^2 UVB (3538 mJ/cm^2 UVA), 50 μM
Method: as §3

For `CCCCCCCCCCCCCC(=O)O[C@@H]1[C@@H](C)[C@@]2(O)[C@@H](C=C(CO)C[C@]3(O)C(=O)C(C)=C[C@@H]23)[C@@H]2C(C)(C)[C@]12OC(C)=O` [PMA], the “Mean VEGF” value [1] was 148 pg/mL, the “VEGF % Control” value [1] was 205% and the “VEGF % Stimulation” value [1] was 105%. For the same molecule, the “VEGF” value ([1]; single values) was 150 pg/mL and 143 pg/mL.

For `COc1ccc(O)c(C(C)(C)C)c1` [BHA], the “H2O2 % irradiated control” value [2] was 42%, the “H2O2 (AU) Mean” value [2] was 776 AU and the “H2O2 Protection %” value [2] was 70%. For the same molecule, the “H2O2 (AU) (DHR GMFI)” value ([2]; single values) was 740 AU and 834 AU and 754 AU.

With TGF-β [listing 1 of 2 here] the “Fibronectin % Control” value [3] was 181%, the “Fibronectin % Stimulation” value [3] was 81% and the “Fibronectin (ng/ml), single replicates” value [3] was 10870 ng/mL.

TGF-β [listing 2 of 2 here] was tested, and the “Fibronectin (ng/ml), single replicates” value [3] was 11178 ng/mL and 11128 ng/mL.

In the case of `O=C1O[C@H]([C@@H](O)CO)C(O)=C1O` [Vitamin C], the “Procollagen I % Control” value [4] is reported as 316%, the “Procollagen I % Stimulation” value [4] is reported as 216% and the “Procollagen I Mean” value [4] is reported as 5272 ng/mL. For the same molecule, the “Procollagen I” value ([4]; single values) was 4739 ng/mL and 5854 ng/mL and 5225 ng/mL.

`COc1ccc2c(c1)c(CC(=O)O)c(C)n2C(=O)c1ccc(Cl)cc1` [Indomethacin] was tested, and the “% stim. control” value [5] was 2%, the “Cytokine [pg/mL] Mean” value [5] was 39 pg/mL and the “Cytokine” value [5] was 39 pg/mL.

For `COc1ccc(C2CC(=O)c3c(O)cc(O)cc3O2)cc1O` (stereo not shown) [Hesperetin, 3′,5,7-Trihydroxy-4′-methoxyflavanone], the “Viability (%) Mean” value ([6]; 1 μM) was 105%, the “Viability (%)” value ([6]; 1 μM) was 103% and 106% and the “Viability (%) Mean” value ([6]; 2.5 μM) was 103%. The “Viability (%)” value ([6]; 2.5 μM) was 98% and 109%, the “Viability (%) Mean” value ([6]; 5 μM) was 106% and the “Viability (%)” value ([6]; 5 μM) was 107% and 106%. For the same molecule, the “Viability (%) Mean” value ([6]; 10 μM) was 103%, the “Viability (%)” value ([6]; 10 μM) was 101% and 105% and the “Viability (%) Mean” value ([6]; 25 μM) was 108%. The “Viability (%)” value ([6]; 25 μM) was 106% and 109%, the “Viability (%) Mean” value ([6]; 50 μM) was 106% and the “Viability (%)” value ([6]; 50 μM) was 106%. The “Viability (%) Mean” value ([6]; 100 μM) was 99%, the “Viability (%)” value ([6]; 100 μM) was 98% and 100% and the “Viability (%) Mean” value ([6]; 250 μM) was 57%. For the same molecule, the “Viability (%) Mean” value ([6]; 250 μM, listed as hesperetin) was “about 50%” and the “Viability (%)” value ([6]; 250 μM) was 54% and 59%.

With `C[C@@H]1C[C@H]2[C@@H]3CCC4=CC(=O)C=C[C@]4(C)[C@@]3(F)[C@@H](O)C[C@]2(C)[C@@]1(O)C(=O)CO` [Dexamethasone, reference compound] the “% stim. control” value [5] was 92%, the “Cytokine [pg/mL] Mean” value [5] was 1437 pg/mL and the “Cytokine” value [5] was 1318 pg/mL and 1556 pg/mL. The “MMP-1 % Irradiated control” value [7] was 4%, the “MMP-1 % Protection” value [7] was 150% and the “MMP-1 (ng/ml), single replicates” value [7] was 2.5 ng/mL and 3.1 ng/mL and 3.2 ng/mL. For the same molecule, the “Mean MMP-1” value [7] was 2.9 ng/mL.

With `Cc1cc(C(C)(C)C)c(O)c(C(C)(C)C)c1` [BHT] the “C11-fluor (AU) Mean (1/GMFI)” value [8] was 3.3E−04 AU, the “lipid peroxide % Irradiated control” value [8] was 72% and the “lipid peroxide Protection %” value [8] was 37%. The “C11-fluor (AU) 1/GMFI” value ([8]; single values) was 3.2E−04 AU and 3.3E−04 AU and 3.5E−04 AU and the “C11-fluor (AU) GMFI” value ([8]; single values) was 3139 AU and 3047 AU and 2877 AU.

With `O=C1CC(c2ccc(O)cc2)Oc2cc(O)cc(O)c21` (stereo not shown) [Naringenin, 4′,5,7-Trihydroxyflavanone] the “Viability (%) Mean” value ([6]; 1 μM) was 95%, the “Viability (%)” value ([6]; 1 μM) was 96% and 95% and the “Viability (%) Mean” value ([6]; 2.5 μM) was 93%. The “Viability (%)” value ([6]; 2.5 μM) was 95% and 92%, the “Viability (%) Mean” value ([6]; 5 μM) was 92% and the “Viability (%)” value ([6]; 5 μM) was 93% and 91%. The “Viability (%) Mean” value ([6]; 10 μM) was 95%, the “Viability (%)” value ([6]; 10 μM) was 95% and the “Viability (%) Mean” value ([6]; 25 μM) was 92%. The “Viability (%)” value ([6]; 25 μM) was 89% and 94%, the “Viability (%) Mean” value ([6]; 50 μM) was 89% and the “Viability (%)” value ([6]; 50 μM) was 85% and 94%. For the same molecule, the “Viability (%) Mean” value ([6]; 100 μM) was 75%, the “Viability (%)” value ([6]; 100 μM) was 76% and 74% and the “Viability (%) Mean” value ([6]; 250 μM) was 47%. The “Viability (%) Mean” value ([6]; 250 μM, listed as naringenin) was “about 50%”, the “Viability (%)” value ([6]; 250 μM) was 48% and 47% and the Morph. obs. ([6]; 100 μM) was “+/−,*”. For the same molecule, the Morph. obs. ([6]; 250 μM) was “+/−,*”.

Reference: US20190203240A1, “METHODS FOR THE PRODUCTION OF RHAMNOSYLATED FLAVONOIDS” (Universitaet Hamburg, priority 2016, published 2019)
